This is an account of results in PMC7606262 (Molecular genetics and metabolism, 2020).

Changes are numbered by the printed parent chain.

The target of assay [1] is T1, LCAD (long-chain acyl-CoA dehydrogenase) (Homo sapiens, UniProt P28330).
T1 sequence (P28330 31-430): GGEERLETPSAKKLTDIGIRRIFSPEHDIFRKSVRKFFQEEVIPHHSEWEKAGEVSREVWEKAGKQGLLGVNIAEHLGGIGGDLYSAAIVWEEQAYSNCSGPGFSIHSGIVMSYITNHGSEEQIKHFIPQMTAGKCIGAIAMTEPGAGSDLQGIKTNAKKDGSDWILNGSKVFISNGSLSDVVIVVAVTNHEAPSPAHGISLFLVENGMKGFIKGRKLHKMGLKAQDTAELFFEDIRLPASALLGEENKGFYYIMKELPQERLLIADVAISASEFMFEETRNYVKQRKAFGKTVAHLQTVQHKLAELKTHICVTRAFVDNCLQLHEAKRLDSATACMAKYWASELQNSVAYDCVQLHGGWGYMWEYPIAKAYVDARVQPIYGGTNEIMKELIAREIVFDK
In words: acyl-CoA oxidase assay. It is filed as biochemical. To be noted: oxygen as electron acceptor; 50 mM phosphate pH 7.0, 30 °C.

Assay [2] addresses T2, LCAD (long-chain acyl-CoA dehydrogenase) (Homo sapiens, UniProt P28330, K333Q).
T2 sequence (P28330 31-430 K333Q): T1 sequence (P28330 31-430) with K303Q
Put plainly: acyl-CoA oxidase assay. It is filed as biochemical. To be noted: oxygen as electron acceptor; 50 mM phosphate pH 7.0, 30 °C.

Assay [3] deals with T1, LCAD (long-chain acyl-CoA dehydrogenase). In words: absorbance scan, A443/A280 FAD content. It is filed as binding. To be noted: 100 uM free FAD, 37 °C, 20 min, then dialysis; non-covalent FAD.

Consider `CCCCCCCCCCCCCCCCCC(=O)SCCNC(=O)CCNC(=O)[C@H](O)C(C)(C)COP(=O)(O)OP(=O)(O)OC[C@H]1O[C@@H](n2cnc3c(N)ncnc32)[C@H](O)[C@@H]1OP(=O)(O)O` [C18-CoA, stearoyl-CoA], for which the “acyl-CoA oxidase assay (HRP / Amplex UltraRed fluorescence, H2O2)” value in assay [1] was “C18-CoA was used as substrate as this chain length produces the highest H2O2 production”; in assay [2], “the presence of the K333Q substitution significantly reduced oxidase activity”.

As to `Cc1cc2nc3c(=O)[nH]c(=O)nc-3n(C[C@H](O)[C@H](O)[C@H](O)COP(=O)(O)OP(=O)(O)OC[C@H]3O[C@@H](n4cnc5c(N)ncnc54)[C@H](O)[C@@H]3O)c2cc1C` [FAD], the A443/A280 result in assay [3] was “After incubation of wild-type LCAD with FAD, the A443/A280 ratio, an indicator of enzyme-bound FAD”.
